Holding throughout (format): functional
One assay deals with RPMI-8226. Nature of the assay: Growth inhibition of human RPMI8226 cells assessed as cell growth at 0.003 uM incubated for 48 hrs by sulforhodamine B assay relative to control. The settings on record: RPMI-8226, 48 h, read-out: Activity.
Another assay relates to NCI-H460. Put plainly: Growth inhibition of human NCI-H460 cells assessed as cell growth at 0.003 uM incubated for 48 hrs by sulforhodamine B assay relative to control. The note with it: NCI-H460, 48 h, read-out: Activity. (Sulforhodamine B stains cellular protein and so reports cell mass.)
In the next assay the test system is NCI-H522. Put plainly: Growth inhibition of human NCI-H522 cells assessed as cell growth at 0.003 uM incubated for 48 hrs by sulforhodamine B assay relative to control. The settings on record: NCI-H522, 48 h, read-out: Activity.
For assay [1], the system named is SNB-19. Nature of the assay: Growth inhibition of human SNB19 cells assessed as cell growth at 0.003 uM incubated for 48 hrs by sulforhodamine B assay relative to control. The settings on record: SNB-19, 48 h, read-out: Activity.
The test system of a further assay is UACC-257. Nature of the assay: Growth inhibition of human UACC257 cells assessed as cell growth at 0.003 uM incubated for 48 hrs by sulforhodamine B assay relative to control. The settings on record: UACC-257, 48 h, read-out: Activity.
Another assay concerns OVCAR-3. Put plainly: Growth inhibition of human OVCAR3 cells assessed as cell growth at 0.003 uM incubated for 48 hrs by sulforhodamine B assay relative to control. The note with it: OVCAR-3, 48 h, read-out: Activity.
Assay [2] relates to NCI-H23. Nature of the assay: Growth inhibition of human NCI-H23 cells assessed as cell growth at 0.03 uM incubated for 48 hrs by sulforhodamine B assay relative to control. The note with it: NCI-H23, 48 h, read-out: Activity.
Assay [3] has as its system Hs-578T. Nature of the assay: Growth inhibition of human Hs 578T cells assessed as cell growth at 0.03 uM incubated for 48 hrs by sulforhodamine B assay relative to control. The note with it: read-out: Activity.
The subject of the next assay is HL-60(TB). Nature of the assay: Growth inhibition of human HL-60(TB) cells assessed as cell growth at 0.3 uM incubated for 48 hrs by sulforhodamine B assay relative to control. The note with it: HL-60, 48 h, read-out: Activity.
For the next assay, the system named is NCI-H226. Nature of the assay: Growth inhibition of human NCI-H226 cells assessed as cell growth at 0.3 uM incubated for 48 hrs by sulforhodamine B assay relative to control. The settings on record: NCI-H226, 48 h, read-out: Activity.
Assay [4] deals with SNB-19. Put plainly: Growth inhibition of human SNB19 cells assessed as cell growth at 0.3 uM incubated for 48 hrs by sulforhodamine B assay relative to control. The note with it: SNB-19, 48 h, read-out: Activity.
For assay [5], the system named is SK-MEL-2. Nature of the assay: Growth inhibition of human SK-MEL-2 cells assessed as cell growth at 0.3 uM incubated for 48 hrs by sulforhodamine B assay relative to control. The settings on record: SK-MEL-2, 48 h, read-out: Activity.
The next assay deals with MOLT-4. Nature of the assay: Growth inhibition of human MOLT4 cells assessed as cell growth at 3 uM incubated for 48 hrs by sulforhodamine B assay relative to control. The note with it: MOLT-4, 48 h, read-out: Activity.
The next assay relates to SNB-75. Nature of the assay: Growth inhibition of human SNB75 cells assessed as cell growth at 3 uM incubated for 48 hrs by sulforhodamine B assay relative to control. The note with it: SNB-75, 48 h, read-out: Activity.
A further assay has as its system UO-31. Put plainly: Growth inhibition of human UO31 cells assessed as cell growth at 3 uM incubated for 48 hrs by sulforhodamine B assay relative to control. The settings on record: UO-31, 48 h, read-out: Activity.
The subject of assay [6] is RXF 393. Nature of the assay: Growth inhibition of human RXF393 cells assessed as cell growth at 30 uM incubated for 48 hrs by sulforhodamine B assay relative to control. The settings on record: RXF 393, 48 h, read-out: Activity.
Assay [7] deals with Hs-578T. Put plainly: Growth inhibition of human Hs 578T cells assessed as cell growth at 30 uM incubated for 48 hrs by sulforhodamine B assay relative to control. The settings on record: read-out: Activity.
The test system of the next assay is M14. Nature of the assay: Growth inhibition of human M14 cells assessed as cell growth at 0.01 uM incubated for 48 hrs by sulforhodamine B assay relative to control. The settings on record: M14, 48 h, read-out: Activity.
The test system of assay [8] is SK-MEL-2. Nature of the assay: Growth inhibition of human SK-MEL-2 cells assessed as cell growth at 0.01 uM incubated for 48 hrs by sulforhodamine B assay relative to control. The settings on record: SK-MEL-2, 48 h, read-out: Activity.
The subject of another assay is SK-MEL-5. Nature of the assay: Growth inhibition of human SK-MEL-5 cells assessed as cell growth at 0.01 uM incubated for 48 hrs by sulforhodamine B assay relative to control. The note with it: SK-MEL-5, 48 h, read-out: Activity.
In a further assay the test system is OVCAR-4. Nature of the assay: Growth inhibition of human OVCAR4 cells assessed as cell growth at 0.01 uM incubated for 48 hrs by sulforhodamine B assay relative to control. The settings on record: OVCAR-4, 48 h, read-out: Activity.
The test system of a further assay is OVCAR-5. Put plainly: Growth inhibition of human OVCAR5 cells assessed as cell growth at 0.01 uM incubated for 48 hrs by sulforhodamine B assay relative to control. The settings on record: OVCAR-5, 48 h, read-out: Activity.
For assay [9], the system named is NCI-H23. Put plainly: Growth inhibition of human NCI-H23 cells assessed as cell growth at 0.1 uM incubated for 48 hrs by sulforhodamine B assay relative to control. The settings on record: NCI-H23, 48 h, read-out: Activity.
The next assay relates to KM12. Nature of the assay: Growth inhibition of human KM12 cells assessed as cell growth at 0.1 uM incubated for 48 hrs by sulforhodamine B assay relative to control. The note with it: KM12, 48 h, read-out: Activity.
In a further assay the test system is NCI/ADR-RES. Put plainly: Growth inhibition of human NCI/ADR-RES cells assessed as cell growth at 0.1 uM incubated for 48 hrs by sulforhodamine B assay relative to control. The settings on record: read-out: Activity.
Assay [10] relates to NCI-H23. Nature of the assay: Growth inhibition of human NCI-H23 cells assessed as cell growth at 1 uM incubated for 48 hrs by sulforhodamine B assay relative to control. The note with it: NCI-H23, 48 h, read-out: Activity.
Another assay concerns SK-MEL-28. Put plainly: Growth inhibition of human SK-MEL-28 cells assessed as cell growth at 1 uM incubated for 48 hrs by sulforhodamine B assay relative to control. The settings on record: SK-MEL-28, 48 h, read-out: Activity.
Assay [11] concerns RXF 393. Put plainly: Growth inhibition of human RXF393 cells assessed as cell growth at 1 uM incubated for 48 hrs by sulforhodamine B assay relative to control. The note with it: RXF 393, 48 h, read-out: Activity.
A further assay deals with TK-10. Put plainly: Growth inhibition of human TK10 cells assessed as cell growth at 1 uM incubated for 48 hrs by sulforhodamine B assay relative to control. The note with it: TK-10, 48 h, read-out: Activity.
In assay [12] the test system is SK-MEL-2. Put plainly: Growth inhibition of human SK-MEL-2 cells assessed as cell growth at 10 uM incubated for 48 hrs by sulforhodamine B assay relative to control. The settings on record: SK-MEL-2, 48 h, read-out: Activity.
The subject of another assay is A498. Put plainly: Growth inhibition of human A498 cells assessed as cell growth at 10 uM incubated for 48 hrs by sulforhodamine B assay relative to control. The note with it: A498, 48 h, read-out: Activity.
The test system of the next assay is A549. Put plainly: Growth inhibition of human A549/ATCC cells assessed as cell growth at 100 uM incubated for 48 hrs by sulforhodamine B assay relative to control. The note with it: A549, 48 h, read-out: Activity.
Assay [13] concerns NCI-H23. Put plainly: Growth inhibition of human NCI-H23 cells assessed as cell growth at 100 uM incubated for 48 hrs by sulforhodamine B assay relative to control. The note with it: NCI-H23, 48 h, read-out: Activity.
Another assay deals with SK-OV-3. Put plainly: Growth inhibition of human SKOV3 cells assessed as cell growth at 100 uM incubated for 48 hrs by sulforhodamine B assay relative to control. The settings on record: SK-OV-3, 48 h, read-out: Activity.

Each structure is given as a SMILES string.

As for `Cc1nc2cc(O)c(O)cc2cc1Oc1ccc(NC(=O)Nc2ccc(Cl)c(Cl)c2)cc1`, the growth at 0.003 µM turned out to be 93% with RPMI-8226; 102% in the assay with NCI-H460; 95% in the assay on NCI-H522; 94% in the assay with SNB-19 [1]; 85% with UACC-257; 105% in the assay with OVCAR-3. In addition, the growth at 0.03 µM in the assay on NCI-H23 [2] was 92%; with Hs-578T [3], 85%. Further, the growth at 0.3 µM in the assay with HL-60(TB) is 106%; with NCI-H226 it was 97%; in the assay on SNB-19 [4], 117%; in the assay on SK-MEL-2 [5] it was 118%. Besides, the growth at 3 µM came to 87% in the assay on MOLT-4, 83% in the assay on SNB-75 and 100% in the assay on UO-31. For the same molecule, the values for the growth at 30 µM in the assay on RXF 393 [6] and with Hs-578T [7] were 7% and 16%, respectively.
Turning to `COc1cc2cc(Oc3ccc(NC(=O)Nc4ccc(Cl)c(C(F)(F)F)c4)cc3)c(C)nc2cc1OC`, the growth at 0.003 µM in the assay with RPMI-8226 was found to be 100%; in the assay on NCI-H460, 106%; in the assay with NCI-H522, 91%; in the assay on SNB-19 [1], 94%; in the assay with UACC-257, 94%; in the assay with OVCAR-3, 100%. Further, the growth at 0.03 µM in the assay on NCI-H23 [2] is 93%; with Hs-578T [3], 109%. Moreover, the growth at 0.3 µM stood at 111% in the assay with HL-60(TB), 106% in the assay with NCI-H226, 96% in the assay with SNB-19 [4] and 101% with SK-MEL-2 [5]. For the same molecule, the growth at 3 µM in the assay on MOLT-4 is 10%; in the assay with SNB-75, 10%; in the assay on UO-31 it was -17%. Besides, the growth at 30 µM is -80% with RXF 393 [6] and -53% with Hs-578T [7].
Consider `COc1cc2cc(Oc3ccc(NC(=O)Nc4ccc(Cl)c(Cl)c4)cc3)c(C)nc2cc1OC`, for which the growth at 0.01 µM in the assay on M14 worked out at 84%; in the assay with SK-MEL-2 [8], 116%; with SK-MEL-5, 103%; in the assay on OVCAR-4, 95%; in the assay with OVCAR-5 it was 103%. The growth at 0.1 µM in the assay on NCI-H23 [9] came out at 93%; in the assay on KM12, 104%; in the assay with NCI/ADR-RES it was 100%. In addition, the growth at 1 µM worked out at 89% in the assay on NCI-H23 [10], 97% in the assay on SK-MEL-28, 104% with RXF 393 [11] and 114% in the assay on TK-10. Moreover, the growth at 10 µM in the assay on SK-MEL-2 [12] is -27%; with A498, -8%. The figures for the growth at 100 µM in the assay on A549, in the assay with NCI-H23 [13] and in the assay on SK-OV-3 were -100%, -59% and -57%, respectively.
In the case of `COc1cc2cc(Oc3ccc(NC(=O)Nc4cc(C(F)(F)F)cc(C(F)(F)F)c4)cc3)c(C)nc2cc1OC`, the growth at 0.01 µM stood at 92% in the assay on M14; 106% in the assay with SK-MEL-2 [8]; 100% in the assay with SK-MEL-5; 85% in the assay with OVCAR-4; 87% with OVCAR-5. The growth at 0.1 µM was found to be 96% in the assay with NCI-H23 [9], 95% with KM12 and 96% in the assay with NCI/ADR-RES. The growth at 1 µM stood at 39% in the assay with NCI-H23 [10], 59% in the assay on SK-MEL-28, 93% in the assay with RXF 393 [11] and 81% with TK-10. The growth at 10 µM was -51% in the assay on SK-MEL-2 [12] and -43% in the assay on A498. In addition, the growth at 100 µM in the assay on A549 is -85%; with NCI-H23 [13] it was -68%; with SK-OV-3, -89%.

The values above are taken from ChEMBL document CHEMBL3994622, “Design and synthesis of new RAF kinase-inhibiting antiproliferative quinoline derivatives. Part 2: Diarylurea derivatives” (Eur J Med Chem, 2017).
